Experimental data: paper PMC5218480 (PLoS ONE, 2017)

Test system: MV-4-11 cells
Test: Gene expression microarray analysis (Affymetrix PrimeView) and GSEA
Type: cell-based, human
Parameters: RFU PODN (11730768_x_at) / Fold change /veh PODN (11730768_x_at) / RFU LINC00158 (11744669_a_at) / Fold change /veh LINC00158 (11744669_a_at) / RFU DUSP10 (11751237_a_at) / Fold change /veh DUSP10 (11751237_a_at) / RFU ID3 (11757404_x_at) / Fold change /veh ID3 (11757404_x_at) / RFU PLEKHG5 (11737974_s_at) / Fold change /veh PLEKHG5 (11737974_s_at) / RFU LRRC4B (11730491_at) / Fold change /veh LRRC4B (11730491_at) / RFU GIMAP4 (11747438_a_at) / Fold change /veh GIMAP4 (11747438_a_at) / RFU KRT8 (11758183_x_at) / Fold change /veh KRT8 (11758183_x_at) / RFU CNN1 (11734310_a_at) / Fold change /veh CNN1 (11734310_a_at) / RFU VPS37D (11726825_at) / Fold change /veh VPS37D (11726825_at) / RFU C10orf10 (11716522_x_at) / Fold change /veh C10orf10 (11716522_x_at) / RFU KIR2DL2 /// KIR2DL4 /// KIR2DL5A /// KIR2DL5B /// KIR2DS1 /// KIR2DS2 /// KIR2DS3 /// KIR2DS4 /// KIR3DL3 /// KIR3DL3 /// KIR3DS1 (11738374_at) / Fold change /veh KIR2DL2 /// KIR2DL4 /// KIR2DL5A /// KIR2DL5B /// KIR2DS1 /// KIR2DS2 /// KIR2DS3 /// KIR2DS4 /// KIR3DL3 /// KIR3DL3 /// KIR3DS1 (11738374_at) / RFU C1QL1 (11718748_at) / Fold change /veh C1QL1 (11718748_at) / RFU TMPRSS4 (11747572_a_at) / Fold change /veh TMPRSS4 (11747572_a_at) / RFU HAMP (11756126_x_at) / Fold change /veh HAMP (11756126_x_at) / RFU RNFT2 (11725882_a_at) / Fold change /veh RNFT2 (11725882_a_at) / RFU NR4A2 (11747474_a_at) / Fold change /veh NR4A2 (11747474_a_at) / RFU ABCC12 (11746883_a_at) / Fold change /veh ABCC12 (11746883_a_at) / RFU TMEM136 (11760407_x_at) / Fold change /veh TMEM136 (11760407_x_at) / RFU CLDN22 /// WWC2 (11732394_at) / Fold change /veh CLDN22 /// WWC2 (11732394_at) / RFU HLA-DPB1 (11760878_x_at) / Fold change /veh HLA-DPB1 (11760878_x_at) / RFU SPINT1 (11716480_a_at) / Fold change /veh SPINT1 (11716480_a_at) / RFU GAP43 (11754022_s_at) / Fold change /veh GAP43 (11754022_s_at) / RFU A4GNT (11735810_at) / Fold change /veh A4GNT (11735810_at) / RFU PRB3 (11715151_x_at) / Fold change /veh PRB3 (11715151_x_at) / RFU TUBB4B (11761932_at) / Fold change /veh TUBB4B (11761932_at) / RFU CAPN14 (11732068_a_at) / Fold change /veh CAPN14 (11732068_a_at) / RFU TMCC2 (11721928_a_at) / Fold change /veh TMCC2 (11721928_a_at) / RFU IRGQ (11745062_a_at) / Fold change /veh IRGQ (11745062_a_at) / RFU FAM174B (11720279_a_at) / Fold change /veh FAM174B (11720279_a_at) / RFU TMPRSS4 (11748680_a_at) / Fold change /veh TMPRSS4 (11748680_a_at) / RFU FAM212B (11763350_a_at) / Fold change /veh FAM212B (11763350_a_at) / RFU PLEKHG5 (11743358_a_at) / Fold change /veh PLEKHG5 (11743358_a_at) / RFU ZSCAN30 (11745921_a_at) / Fold change /veh ZSCAN30 (11745921_a_at) / RFU CMKLR1 (11741424_a_at) / Fold change /veh CMKLR1 (11741424_a_at) / RFU LOC101060620 /// MAPK8IP1 (11723275_at) / Fold change /veh LOC101060620 /// MAPK8IP1 (11723275_at) / RFU SPTSSB (11747773_x_at) / Fold change /veh SPTSSB (11747773_x_at) / RFU PRSS12 (11739890_at) / Fold change /veh PRSS12 (11739890_at) / RFU BIN1 (11741810_x_at) / Fold change /veh BIN1 (11741810_x_at) / RFU WNT11 (11732464_a_at) / Fold change /veh WNT11 (11732464_a_at) / RFU C10orf10 (11716521_a_at) / Fold change /veh C10orf10 (11716521_a_at) / RFU C5orf56 (11738089_at) / Fold change /veh C5orf56 (11738089_at) / RFU CYB561 (11721691_x_at) / Fold change /veh CYB561 (11721691_x_at) / RFU ANKRD19P (11752326_a_at) / Fold change /veh ANKRD19P (11752326_a_at) / RFU OR2T12 /// OR2T33 /// OR2T8 (11738714_s_at) / Fold change /veh OR2T12 /// OR2T33 /// OR2T8 (11738714_s_at) / RFU VCAN (11748164_a_at) / Fold change /veh VCAN (11748164_a_at) / RFU JSRP1 (11732532_at) / Fold change /veh JSRP1 (11732532_at) / RFU KRTAP10-11 (11738290_x_at) / Fold change /veh KRTAP10-11 (11738290_x_at) / RFU MYO3A (11730013_a_at) / Fold change /veh MYO3A (11730013_a_at) / RFU EBF3 (11725865_a_at) / Fold change /veh EBF3 (11725865_a_at) / RFU CAMK2N1 (11719241_x_at) / Fold change /veh CAMK2N1 (11719241_x_at) / RFU C5orf56 (11738088_a_at) / Fold change /veh C5orf56 (11738088_a_at) / RFU OLFML3 (11715873_a_at) / Fold change /veh OLFML3 (11715873_a_at) / RFU LOC100653217 /// NTM (11731650_a_at) / Fold change /veh LOC100653217 /// NTM (11731650_a_at) / RFU MAPK11 (11762145_a_at) / Fold change /veh MAPK11 (11762145_a_at) / RFU FIZ1 (11724087_x_at) / Fold change /veh FIZ1 (11724087_x_at) / RFU OASL (11726364_x_at) / Fold change /veh OASL (11726364_x_at) / RFU SOX15 (11748057_x_at) / Fold change /veh SOX15 (11748057_x_at) / RFU CD79A (11719716_a_at) / Fold change /veh CD79A (11719716_a_at) / RFU HIST1H1D (11736915_at) / Fold change /veh HIST1H1D (11736915_at) / RFU CASKIN2 (11723855_a_at) / Fold change /veh CASKIN2 (11723855_a_at) / RFU LOC730098 (11760151_x_at) / Fold change /veh LOC730098 (11760151_x_at) / RFU OR4N2 (11742367_at) / Fold change /veh OR4N2 (11742367_at) / RFU PRRT2 (11749266_a_at) / Fold change /veh PRRT2 (11749266_a_at) / RFU SNX32 (11753110_a_at) / Fold change /veh SNX32 (11753110_a_at) / RFU CDHR5 (11726645_a_at) / Fold change /veh CDHR5 (11726645_a_at) / RFU RCAN1 (11760418_a_at) / Fold change /veh RCAN1 (11760418_a_at) / RFU FAM167A (11723789_a_at) / Fold change /veh FAM167A (11723789_a_at) / RFU FAM26E (11764081_at) / Fold change /veh FAM26E (11764081_at) / RFU ISYNA1 (11749810_s_at) / Fold change /veh ISYNA1 (11749810_s_at) / RFU ACY1 (11761880_at) / Fold change /veh ACY1 (11761880_at) / RFU 11764098_at / Fold change /veh 11764098_at / RFU SAMD14 (11745864_x_at) / Fold change /veh SAMD14 (11745864_x_at) / RFU NPB (11741838_a_at) / Fold change /veh NPB (11741838_a_at) / RFU TMPRSS6 (11731388_a_at) / Fold change /veh TMPRSS6 (11731388_a_at) / RFU KRTAP10-2 (11738614_at) / Fold change /veh KRTAP10-2 (11738614_at) / RFU ARHGAP8 /// PRR5-ARHGAP8 (11727945_x_at) / Fold change /veh ARHGAP8 /// PRR5-ARHGAP8 (11727945_x_at) / RFU KRTAP5-7 /// NADSYN1 (11734609_at) / Fold change /veh KRTAP5-7 /// NADSYN1 (11734609_at) / RFU RASL12 (11751679_a_at) / Fold change /veh RASL12 (11751679_a_at) / RFU CDKN2B (11736163_a_at) / Fold change /veh CDKN2B (11736163_a_at) / RFU PRF1 (11729649_at) / Fold change /veh PRF1 (11729649_at) / RFU, ZNF638 /// ZNF638-IT1 / Fold change vs veh, ZNF638 /// ZNF638-IT1 / RFU, PANK3 / Fold change vs veh, PANK3 / RFU, SH3YL1 / Fold change vs veh, SH3YL1 / RFU, ZEB2 / Fold change vs veh, ZEB2 / RFU, NRIP1 / Fold change vs veh, NRIP1 / RFU, PTTG1IP / Fold change vs veh, PTTG1IP / RFU, CAPN2 / Fold change vs veh, CAPN2 / RFU, MED14 / Fold change vs veh, MED14 / RFU, SNORA58 / Fold change vs veh, SNORA58 / RFU, C1orf63 / Fold change vs veh, C1orf63 / RFU, LRRFIP1 / Fold change vs veh, LRRFIP1 / RFU, NDUFAF7 / Fold change vs veh, NDUFAF7 / RFU, SLC12A2 / Fold change vs veh, SLC12A2 / RFU, IBTK / Fold change vs veh, IBTK / RFU, ESF1 / Fold change vs veh, ESF1 / Fold change vs veh, TMEM50B / RFU, TAOK1 / Fold change vs veh, TAOK1 / RFU, ACBD3 / Fold change vs veh, ACBD3 / RFU, TMA16 / Fold change vs veh, TMA16 / RFU, RWDD3 / Fold change vs veh, RWDD3 / RFU, BCAT1 / Fold change vs veh, BCAT1 / RFU, EDEM3 / Fold change vs veh, EDEM3 / RFU, TMEM33 / Fold change vs veh, TMEM33 / RFU, WDR75 / Fold change vs veh, WDR75 / RFU, AHCTF1 / Fold change vs veh, AHCTF1 / RFU, TFRC / Fold change vs veh, TFRC / RFU, ZDHHC17 / Fold change vs veh, ZDHHC17 / RFU, NOM1 / Fold change vs veh, NOM1 / RFU, ARL8B / Fold change vs veh, ARL8B / RFU, ZBTB11 / Fold change vs veh, ZBTB11 / RFU, TAMM41 / Fold change vs veh, TAMM41 / RFU, KIAA1704 /// LOC100996395 / Fold change vs veh, KIAA1704 /// LOC100996395 / RFU, ING1 / Fold change vs veh, ING1 / RFU, TRMT61B / Fold change vs veh, TRMT61B / RFU, FUBP3 / Fold change vs veh, FUBP3 / RFU, TP53 / Fold change vs veh, TP53 / RFU, TNKS2 / Fold change vs veh, TNKS2 / RFU, ZFP14 / Fold change vs veh, ZFP14 / RFU, ACTR2 / Fold change vs veh, ACTR2 / RFU, PPP3R1 / Fold change vs veh, PPP3R1 / RFU, PIK3R1 / Fold change vs veh, PIK3R1 / RFU, HNRNPA1 / Fold change vs veh, HNRNPA1 / RFU, RNF170 / Fold change vs veh, RNF170 / RFU, ZNF28 / Fold change vs veh, ZNF28 / RFU, RNGTT / Fold change vs veh, RNGTT / RFU, OGT / Fold change vs veh, OGT / RFU, BRD1 / Fold change vs veh, BRD1 / RFU, MARS / Fold change vs veh, MARS / RFU, ZNF655 / Fold change vs veh, ZNF655 / RFU, FAHD1 / Fold change vs veh, FAHD1 / RFU, BDP1 / Fold change vs veh, BDP1 / RFU, LRRCC1 / Fold change vs veh, LRRCC1 / RFU, ARID1A / Fold change vs veh, ARID1A / RFU, ZNF146 / Fold change vs veh, ZNF146 / RFU, ZNF330 / Fold change vs veh, ZNF330 / RFU, GPN3 / Fold change vs veh, GPN3 / RFU, C9orf123 / Fold change vs veh, C9orf123 / RFU, N4BP2L2 / Fold change vs veh, N4BP2L2 / RFU, ARFIP1 / Fold change vs veh, ARFIP1 / RFU, FAM179B / Fold change vs veh, FAM179B / RFU, BCL10 / Fold change vs veh, BCL10 / RFU, UHRF1BP1L / Fold change vs veh, UHRF1BP1L / RFU, BET1 / Fold change vs veh, BET1 / RFU, CNOT2 / Fold change vs veh, CNOT2 / RFU, ZNF268 / Fold change vs veh, ZNF268 / Fold change vs veh, ZNF507 / RFU, DGCR2 / Fold change vs veh, DGCR2 / RFU, WDSUB1 / Fold change vs veh, WDSUB1 / Fold change vs veh, HSP90B1 /// MIR3652 / RFU, ADSS / Fold change vs veh, ADSS / RFU, GK / Fold change vs veh, GK / RFU, ZNF148 / Fold change vs veh, ZNF148 / RFU, TAF9 / Fold change vs veh, TAF9 / RFU, SLC1A5 / Fold change vs veh, SLC1A5 / RFU, SLMO2 / Fold change vs veh, SLMO2 / RFU, ABCC4 / Fold change vs veh, ABCC4 / RFU, LOC101060439 /// RAP1B / Fold change vs veh, LOC101060439 /// RAP1B / RFU, RFX7 / Fold change vs veh, RFX7 / RFU, GTPBP10 / Fold change vs veh, GTPBP10 / RFU, CNEP1R1 / Fold change vs veh, CNEP1R1 / RFU, BIVM-ERCC5 /// ERCC5 / Fold change vs veh, BIVM-ERCC5 /// ERCC5 / RFU, ILF3 / Fold change vs veh, ILF3 / RFU 11762660_at / Fold change /veh 11762660_at / RFU VCAN (11757783_s_at) / Fold change /veh VCAN (11757783_s_at) / RFU DDX43 (11728927_at) / Fold change /veh DDX43 (11728927_at) / RFU KRT8 (11758188_x_at) / Fold change /veh KRT8 (11758188_x_at) / RFU NKD1 (11759106_at) / Fold change /veh NKD1 (11759106_at) / RFU SRD5A1 (11742802_a_at) / Fold change /veh SRD5A1 (11742802_a_at) / RFU TPSAB1 /// TPSB2 (11721975_s_at) / Fold change /veh TPSAB1 /// TPSB2 (11721975_s_at) / RFU GSTM3 (11746129_a_at) / Fold change /veh GSTM3 (11746129_a_at) / RFU IL23R (11737362_x_at) / Fold change /veh IL23R (11737362_x_at) / RFU TMEM51 (11727254_a_at) / Fold change /veh TMEM51 (11727254_a_at) / RFU PIWIL2 (11732686_x_at) / Fold change /veh PIWIL2 (11732686_x_at) / RFU ORM1 (11744905_x_at) / Fold change /veh ORM1 (11744905_x_at) / RFU CCDC152 (11743942_at) / Fold change /veh CCDC152 (11743942_at) / RFU ECM1 (11717891_a_at) / Fold change /veh ECM1 (11717891_a_at) / RFU IL23R (11748794_a_at) / Fold change /veh IL23R (11748794_a_at) / RFU TNFAIP8L3 (11732012_x_at) / Fold change /veh TNFAIP8L3 (11732012_x_at) / RFU MBOAT4 (11741988_at) / Fold change /veh MBOAT4 (11741988_at) / RFU 11764193_at / Fold change /veh 11764193_at / RFU TMEM53 (11763286_at) / Fold change /veh TMEM53 (11763286_at) / RFU MAGEB2 (11727129_at) / Fold change /veh MAGEB2 (11727129_at) / RFU TMEM200A (11744735_a_at) / Fold change /veh TMEM200A (11744735_a_at) / RFU CCDC152 (11751479_a_at) / Fold change /veh CCDC152 (11751479_a_at) / RFU FAM211A (11726209_a_at) / Fold change /veh FAM211A (11726209_a_at) / RFU RGS16 (11746705_a_at) / Fold change /veh RGS16 (11746705_a_at) / RFU VCAN (11755009_s_at) / Fold change /veh VCAN (11755009_s_at) / RFU RHOB (11743442_s_at) / Fold change /veh RHOB (11743442_s_at) / RFU RGS16 (11720943_a_at) / Fold change /veh RGS16 (11720943_a_at) / RFU RGS16 (11720944_at) / Fold change /veh RGS16 (11720944_at) / RFU, VPS4B / Fold change vs veh, VPS4B / RFU, CREB1 / Fold change vs veh, CREB1 / RFU, DNAJC13 / Fold change vs veh, DNAJC13 / RFU, GNAQ / Fold change vs veh, GNAQ / RFU, CDK5R1 / Fold change vs veh, CDK5R1 / RFU, ZRANB3 / Fold change vs veh, ZRANB3 / RFU, CUL4A / Fold change vs veh, CUL4A / RFU, CCNY / Fold change vs veh, CCNY / RFU, UFL1 / Fold change vs veh, UFL1 / RFU, COG3 / Fold change vs veh, COG3 / RFU, DIAPH2 / Fold change vs veh, DIAPH2 / RFU, SKA2 / Fold change vs veh, SKA2 / RFU, AFF3 / Fold change vs veh, AFF3 / RFU, LMF1 / Fold change vs veh, LMF1 / RFU, IPO11 / Fold change vs veh, IPO11 / RFU, DFFB / Fold change vs veh, DFFB / RFU, FOXP1 / Fold change vs veh, FOXP1 / RFU, CARD8 / Fold change vs veh, CARD8 / RFU, STRN3 / Fold change vs veh, STRN3 / RFU, ADK / Fold change vs veh, ADK / RFU, RASSF2 / Fold change vs veh, RASSF2 / RFU, WIPF1 / Fold change vs veh, WIPF1 / RFU, LARP1B / Fold change vs veh, LARP1B / RFU, RASA1 / Fold change vs veh, RASA1 / RFU, RB1 / Fold change vs veh, RB1 / RFU, PPFIA1 / Fold change vs veh, PPFIA1 / RFU, MAT2A / Fold change vs veh, MAT2A / RFU, CCT5 / Fold change vs veh, CCT5 / RFU, WDR92 / Fold change vs veh, WDR92 / RFU, CUX1 / Fold change vs veh, CUX1 / RFU, TTC7A / Fold change vs veh, TTC7A / RFU, TMEM135 / Fold change vs veh, TMEM135 / RFU, DEPTOR / Fold change vs veh, DEPTOR / RFU, CPM / Fold change vs veh, CPM / RFU, DNAJB6 / Fold change vs veh, DNAJB6 / RFU, CACNA2D3 / Fold change vs veh, CACNA2D3 / RFU, DTX4 / Fold change vs veh, DTX4 / RFU, TFCP2 / Fold change vs veh, TFCP2 / RFU, GMCL1 /// GMCL1P1 / Fold change vs veh, GMCL1 /// GMCL1P1 / RFU, AEBP2 / Fold change vs veh, AEBP2 / RFU, SNHG1 /// SNORD22 /// SNORD25 /// SNORD26 /// SNORD27 /// SNORD28 /// SNORD29 /// SNORD31 / Fold change vs veh, SNHG1 /// SNORD22 /// SNORD25 /// SNORD26 /// SNORD27 /// SNORD28 /// SNORD29 /// SNORD31 / Fold change (Aza/veh), C12orf56 (ProbeSet 11735607_a_at) / Fold change (ACY-1035/veh), C12orf56 (ProbeSet 11735607_a_at) / Fold change (Aza/veh), FGFR1OP (ProbeSet 11751329_s_at) / Fold change (ACY-1035/veh), FGFR1OP (ProbeSet 11751329_s_at) / Fold change (Aza/veh), VPS36 (ProbeSet 11739960_a_at) / Fold change (ACY-1035/veh), VPS36 (ProbeSet 11739960_a_at) / RFU SYPL1 (11715823_x_at) / Fold change /veh SYPL1 (11715823_x_at) / RFU IGFBP7 (11715501_s_at) / Fold change /veh IGFBP7 (11715501_s_at) / RFU REEP3 (11722064_at) / Fold change /veh REEP3 (11722064_at) / RFU IGLL1 (11728026_x_at) / Fold change /veh IGLL1 (11728026_x_at): dose or concentration left out as unconfirmed
Conditions: MV-4-11 cells, 48 hours

## Nc1ncn([C@@H]2O[C@H](CO)[C@@H](O)[C@H]2O)c(=O)n1 [azacitidine]
  Fold change /veh HAMP (11756126_x_at): 0.87
